Drawing on patent US6333330A, “Pyrazolopyrimidinone CGMP PDE5 inhibitors for the treatment of sexual dysfunction” (Pfizer Inc., priority 1998, dated 2001), this text covers IC50 for five compounds.

Molecules are shown by their SMILES.

This experiment has as its system cGMP PDE5. As to the kind of experiment: In vitro PDE inhibitory activity against cGMP PDE5 (IC50). It is filed as biochemical. To be noted: table of Examples, read-out: IC50 (in vitro activities as inhibitors of cGMP PDE5). The method, then:
In vitro PDE inhibitory activities against cyclic guanosine 3', 5'-monophosphate (cGMP) and cyclic adenosine 3',5'-monophosphate (cAMP) phosphodiesterases were determined by measurement of their IC50 values (the concentration of compound required for 50% inhibition of enzyme activity).
The required PDE enzymes were isolated from a variety of sources, including human corpus cavernosum, human and rabbit platelets, human cardiac ventricle, human skeletal muscle and bovine retina, essentially by the method of W. J. Thompson and M. M. Appleman (Biochem., 1971, 10, 311). In particular, the cGMP-specific PDE (PDE5) and the cGMP-inhibited cAMP PDE (PDE3) were obtained from human corpus cavernosum tissue, human platelets or rabbit platelets; the cGMP-stimulated PDE (PDE2) was obtained from human corpus cavernosum; the calcium/calmodulin (Ca/CAM)-dependent PDE (PDE1) from human cardiac ventricle; the cAMP-specific PDE (PDE4) from human skeletal is muscle; and the photoreceptor PDE (PDE6) from bovine retina.
Assays were performed using a modification of the "batch" method of W. J. Thompson et al. (Biochem., 1979, 18, 5228).

In general, IC50 refers to the midpoint of a concentration-inhibition curve.

Regarding `CCCOc1ccc(S(=O)(=O)N2CCN(CCO)CC2)cc1-c1nc2c(C(N)=O)nn(Cc3ccccn3)c2c(=O)[nH]1` [Example 5], the IC50 was found to be 2.8 nM. Under `CCCOc1ccc(S(=O)(=O)N2CCN(C)CC2)cc1-c1nc2c(C(=O)NC)nn(Cc3cccnc3)c2c(=O)[nH]1` [Example 8] stands 4.1 nM; under `CCOc1ccc(S(=O)(=O)N2CCN(C)CC2)cc1-c1nc2c(C(=O)NC)nn(Cc3ccccc3)c2c(=O)[nH]1` [Example 19, 1-Benzyl-5-[2-ethoxy-5-(4-methylpiperazin-1-ylsulphonyl)]-7-oxo-1,6-dihydro-1H-pyrazolo[4,3-d]pyrimidine-3-N-methylcarboxamide], 3.4 nM; under `CCN1CCN(S(=O)(=O)c2cnc(OCCOC)c(-c3nc4c(C(N)=O)nn(Cc5ccccn5)c4c(=O)[nH]3)c2)CC1` [Example 33, 5-[5-(4-Ethylpiperazin-1-ylsulphonyl)-2-(2-methoxyethoxy)pyridin-3-yl]-7-oxo-1-(pyridin-2-yl)methyl-1,6-dihydro-1H-pyrazolo[4,3-d]pyrimidine-3-carboxamide], 2.8 nM. As to `CCOc1ncc(S(=O)(=O)N2CCN(CC)CC2)cc1-c1nc2c(-c3cccnc3)n(Cc3ncccn3)nc2c(=O)[nH]1` [Example 42], the IC50 was 2.26 nM.
